Values quoted from earlier work as cited in paper PMC6311893, “Computational prediction of plasma protein binding of cyclic peptides from small molecule experimental data using sparse modeling techniques” (BMC Bioinformatics, 2018).
Read-outs that look alike come from different tables or passages of the source.

System: plasma protein
Details: cited from earlier work
[1] = fraction bound to plasma protein, small molecule dataset, sheet 1-SM (Set Dte = test, Dtr = training), ref Ingle et al.
[2] = fraction bound to plasma protein, small molecule dataset, sheet 1-SM, ref Ingle et al.

C[C@@H]1CCC[C@H](C)N1NC(=O)c1ccc(Cl)c(S(N)(=O)=O)c1 [clopamide]
PPB (fb) [1]: 0.5

COC(=O)[C@H](c1ccccc1Cl)N1CCc2sccc2C1 [clopidogrel]
PPB (fb) [1]: 0.98

C[C@]12C=CC(=O)C=C1C(Cl)=C[C@@H]1[C@@H]2[C@@H](O)C[C@@]2(C)[C@H]1CC[C@]2(O)C(=O)CO [cloprednol]
PPB (fb) [1]: 0.8

O=C(O)C1N=C(c2ccccc2)c2cc(Cl)ccc2NC1=O (stereo not shown) [clorazepic acid]
PPB (fb) (plasma): 0.91

Clc1ccccc1C(c1ccccc1)(c1ccccc1)n1ccnc1 [clotrimazole]
PPB (fb) [1]: 0.5

Cc1onc(-c2ccccc2Cl)c1C(=O)N[C@@H]1C(=O)N2[C@@H]1SC(C)(C)[C@@H]2C(=O)O [cloxacillin]
PPB (fb) [1]: 0.95

CC(=O)OCC(=O)[C@@]1(O)CC[C@H]2[C@@H]3CCC4=CC(=O)CC[C@]4(C)[C@H]3C(=O)C[C@@]21C [cortisone acetate]
PPB (fb) [1]: 0.95

O=C(O)c1cc(=O)c2c(OCC(O)COc3cccc4oc(C(=O)O)cc(=O)c34)cccc2o1 [cromolyn]
PPB (fb) [1]: 0.68

CN1CCN(C(c2ccccc2)c2ccccc2)CC1 [cyclizine]
PPB (fb) [1]: 0.6

CCC1(C2=CCCCC2)C(=O)NC(=O)NC1=O [cyclobarbital]
PPB (fb) (plasma): 0.7

CN(C)CCC=C1c2ccccc2C=Cc2ccccc21 [cyclobenzaprine]
PPB (fb) [1]: 0.93

N[C@@H]1CON=C1O [cycloserine]
PPB (fb) [1]: 0.2

O=C1CN(/N=C/c2ccc(-c3ccc([N+](=O)[O-])cc3)o2)C(O)=N1 [dantrolene]
PPB (fb) [1]: 0.89

N=C(N)N1CCc2ccccc2C1 [debrisoquine]
PPB (fb) [1]: 0.85

CC(=O)OCC(=O)[C@@]12N=C(C)O[C@@H]1C[C@H]1[C@@H]3CCC4=CC(=O)C=C[C@]4(C)[C@H]3[C@@H](O)C[C@@]12C [deflazacort]
PPB (fb) [1]: 0.4

CC(C)Nc1cccnc1N1CCN(C(=O)c2cc3cc(NS(C)(=O)=O)ccc3[nH]2)CC1 [delavirdine]
PPB (fb) [1]: 0.98

C[C@H]1O[C@@H](O[C@H]2CC[C@@]3(C)[C@H](CC[C@@H]4[C@@H]3C[C@@H](O)[C@]3(C)[C@@H](C5=CC(=O)OC5)CC[C@]43O)C2)C[C@H](O)[C@@H]1O[C@H]1C[C@H](O)[C@H](O[C@H]2C[C@H](O)[C@H](O[C@@H]3O[C@H](CO)[C@@H](O)[C@H](O)[C@H]3O)[C@@H](C)O2)[C@@H](C)O1 [deslanoside]
PPB (fb) (plasma): 0.2

C#C[C@]1(O)CC[C@H]2[C@@H]3CCC4=CCCC[C@@H]4[C@H]3C(=C)C[C@@]21CC [desogestrel]
PPB (fb) [1]: 0.98

OC[C@H]1OC(O)[C@H](O)[C@@H](O)[C@@H]1O (stereo partly shown) [dextrose]
PPB (fb) [1]: 0.3

CC(=O)Oc1ccc2c3c1OC1C(OC(C)=O)C=CC4C(C2)N(C)CCC341 (stereo not shown) [diamorphine]
PPB (fb) (plasma): 0

CCOC(=O)NC1=C(N2CC2)C(=O)C(NC(=O)OCC)=C(N2CC2)C1=O [diaziquone]
PPB (fb) [1]: 0.79

O=C(O)Cc1ccccc1Nc1c(Cl)cccc1Cl [diclofenac acid]
PPB (fb) [1]: 0.99

ClC1=C(Cl)[C@]2(Cl)[C@@H]3[C@@H]4C[C@@H]([C@H]5O[C@@H]45)[C@@H]3[C@@]1(Cl)C2(Cl)Cl [dieldrin]
PPB (fb) (plasma): 0.99

CCN(CC)C(=O)N1CCN(C)CC1 [diethylcarbamazine]
PPB (fb) [1]: 0

CN1C[C@H](C(=O)N[C@]2(C)O[C@@]3(O)[C@@H]4CCCN4C(=O)[C@H](Cc4ccccc4)N3C2=O)C[C@@H]2c3cccc4[nH]cc(c34)C[C@H]21 [dihydroergotamine]
PPB (fb) [1]: 0.93

OCCN(CCO)c1nc(N2CCCCC2)c2nc(N(CCO)CCO)nc(N3CCCCC3)c2n1 [dipyridamole]
PPB (fb) [1]: 0.99

Cc1c(N(C)CS(=O)(=O)O)c(=O)n(-c2ccccc2)n1C [dipyrone]
PPB (fb) [1]: 0.6

CCN(CC)C(=S)SSC(=S)N(CC)CC [disulfiram]
PPB (fb) [1]: 0.5

O=C(O[C@@H]1C[C@@H]2C[C@H]3C[C@H](C1)N2CC3=O)c1c[nH]c2ccccc12 [dolasetron]
PPB (fb) [1]: 0.7

NCCc1ccc(O)c(O)c1 [dopamine]
PPB (fb) [1]: 0.1

CCN[C@H]1C[C@H](C)S(=O)(=O)c2sc(S(N)(=O)=O)cc21 [dorzolamide]
PPB (fb) [1]: 0.3

CN(C)CC/C=C1\c2ccccc2CSc2ccccc21 [dothiepin]
PPB (fb) [2]: 0.85

O=C(CCCN1CC=C(n2c(=O)[nH]c3ccccc32)CC1)c1ccc(F)cc1 [droperidol]
PPB (fb) [2]: 0.95

C[C@]12CCC(=O)C=C1[C@@H]1C[C@@H]1[C@H]1[C@@H]3[C@@H]4C[C@@H]4[C@@]4(CCC(=O)O4)[C@@]3(C)CC[C@@H]12 [drospirenone]
PPB (fb) [2]: 0.97

CC(=O)[C@H]1CC[C@H]2[C@@H]3C=CC4=CC(=O)CC[C@@]4(C)[C@@H]3CC[C@]12C [dydrogesterone]
PPB (fb) (plasma): 0.97

CC(C)(C)c1ccc(C(=O)CCCN2CCC(OC(c3ccccc3)c3ccccc3)CC2)cc1 [ebastine]
PPB (fb) [1]: 0.98

O=C1Nc2ccc(Cl)cc2[C@@](C#CC2CC2)(C(F)(F)F)O1 [efavirenz]
PPB (fb) [2]: 0.99

NCCCC(N)(C(=O)O)C(F)F (stereo not shown) [eflornithine]
PPB (fb) [1]: 0

CCOC(=O)[C@H](CCc1ccccc1)N[C@@H](C)C(=O)N1CCC[C@H]1C(=O)O [enalapril]
PPB (fb) [2]: 0.55

CNC[C@H](O)c1ccc(O)c(O)c1 [epinephrine]
PPB (fb) [2]: 0.5

COC(=O)[C@@H]1CC2=CC(=O)CC[C@]2(C)[C@@]23O[C@@H]2C[C@@]2(C)[C@@H](CC[C@@]24CCC(=O)O4)[C@H]13 [eplerenone]
PPB (fb) [2]: 0.46

Clc1ccc2c(c1)C(c1ccccc1)=NCc1nncn1-2 [estazolam]
PPB (fb) (plasma): 0.93

C=C(CC)C(=O)c1ccc(OCC(=O)O)c(Cl)c1Cl [ethacrynic acid]
PPB (fb) [2]: 0.9

CCO [ethanol]
PPB (fb) (plasma): 0

C#CC(O)(/C=C/Cl)CC (stereo not shown) [ethchlorvynol]
PPB (fb) (plasma): 0.6

CCc1cc(C(N)=S)ccn1 [ethionamide]
PPB (fb) [2]: 0.3

CCC1(C)CC(=O)NC1=O (stereo not shown) [ethosuximide]
PPB (fb) [2]: 0

CCCN(CC)C(CC)C(=O)Nc1c(C)cccc1C (stereo not shown) [etidocaine]
PPB (fb) [2]: 0.94

CCc1cc2c(s1)-n1c(C)nnc1CN=C2c1ccccc1Cl [etizolam]
PPB (fb) (plasma): 0.93

CCc1cccc2c3c([nH]c12)C(CC)(CC(=O)O)OCC3 (stereo not shown) [etodolac]
PPB (fb) [2]: 0.99

CCOC(=O)/C=C(C)/C=C/C=C(C)/C=C/c1c(C)cc(OC)c(C)c1C [etretinate]
PPB (fb) [1]: 0.99

CO[C@H]1C[C@@H]2CC[C@@H](C)[C@@](O)(O2)C(=O)C(=O)N2CCCC[C@H]2C(=O)O[C@H]([C@H](C)C[C@@H]2CC[C@@H](OCCO)[C@H](OC)C2)CC(=O)[C@H](C)/C=C(\C)[C@@H](O)[C@@H](OC)C(=O)[C@H](C)C[C@H](C)/C=C/C=C/C=C/1C [everolimus]
PPB (fb) [2]: 0.74

C=C1C[C@@H]2[C@H](CC[C@]3(C)C(=O)CC[C@@H]23)[C@@]2(C)C=CC(=O)C=C12 [exemestane]
PPB (fb) [2]: 0.9

CC(=O)OCC(CCn1cnc2cnc(N)nc21)COC(C)=O [famciclovir]
PPB (fb) [2]: 0.15

NC(=O)OCC(COC(N)=O)c1ccccc1 [felbamate]
PPB (fb) [2]: 0.23

O=C(O)Cc1ccccc1Oc1ccc(Cl)cc1Cl [fenclofenac]
PPB (fb) [2]: 0.99

CC(NCCC(c1ccccc1)c1ccccc1)c1ccccc1 (stereo not shown) [fendiline]
PPB (fb) [2]: 0.95

CC(C)OC(=O)C(C)(C)Oc1ccc(C(=O)c2ccc(Cl)cc2)cc1 [fenofibrate]
PPB (fb) [2]: 0.99
